From US12201707B2, “Nano-emulsion composition for tooth whitening and method for producing the same” (AMOREPACIFIC CORPORATION, priority 2021, dated 2025)

Assay: Tooth whitening test
Method: Discoloration was induced by immersing 12 hydroxyapatite (HAP) discs in black tea. Subsequently, the four discolored discs were immersed in vials containing each of the nanoemulsion composition of Example 31, a nanoemulsion composition in which oxygen was not captured as a control (control group 1), distilled water as a control (control group 2), and 3% hydrogen peroxide as a control (control group 3), respectively. The lightness values (L values) of the discs were measured on days 0, 2, 4 and 6 using a spectrophotometer. Before each measurement, the discs were completely dried at 55° C. for 1 hour using an oven.

## OO [Control 3, hydrogen peroxide]
Day 0
  lightness value (L value) of disc: 72.9
Day 2
  lightness value (L value) of disc: 84.3
Day 4
  lightness value (L value) of disc: 92.96
Day 6
  lightness value (L value) of disc: 97.48
